Reference: US4452778A, “Synergistic antibacterial compositions and method of treatment of infections caused by multiple antibiotic-resistant organisms” (Eli Lilly and Company, priority 1981, dated 1984)
Read-outs that look alike come from different tables or passages of the source.

System: E. coli
Test: Checkerboard broth dilution synergy study (mic)
Assay type: cell-based
Details: Table II; for MIC: Escherichia coli, read-out: mic, drug alone

## COC1(NC(=O)C(C(=O)O)c2ccc(O)cc2)C(=O)N2C(C(=O)O)=C(CSc3nnnn3C)COC21 (stereo not drawn) [1-oxa compound I, moxalactam]
Strain 46-2
  MIC: 0.03 µg/mL
  mic of each drug in combination I + P: < 0.12 µg/mL
  mic of each drug in combination I + T: < 0.12 µg/mL
Strain 77-3
  MIC: 0.03 µg/mL
  mic of each drug in combination I + T: < 0.12 µg/mL
Strain 136-3
  MIC: 0.06 µg/mL
  mic of each drug in combination I + T: < 0.12 µg/mL
Strain 1260
  MIC: 0.03 µg/mL
  mic of each drug in combination I + T: < 0.12 µg/mL
Strain 1262
  MIC: 0.03 µg/mL
  mic of each drug in combination I + P: < 0.12 µg/mL
  mic of each drug in combination I + T: < 0.12 µg/mL
Strain Briley
  MIC: 0.12 µg/mL
  mic of each drug in combination I + P: < 0.12 µg/mL
  mic of each drug in combination I + T: < 0.12 µg/mL
Strain Dill
  MIC: 0.25 µg/mL
  mic of each drug in combination I + T: < 0.12 µg/mL
Strain 1253
  mic of each drug in combination I + P: 0.5 µg/mL
  mic of each drug in combination I + T: < 0.12 µg/mL
Strain 1415
  mic of each drug in combination I + P: < 0.12 µg/mL
  mic of each drug in combination I + T: < 0.12 µg/mL
